Test results: patent US20260265216A1, “NOVEL THIOREDOXIN REDUCTASE INHIBITORS” (GENEXPLAIN GMBH, priority 2021, published 2026)

Assays:
[1] = target: T1, TrxR1 in HCT116 and MCF7 cells (Homo sapiens, UniProt Q16881); assay: Detection of TrxR dimers by Western blot; assay type: cell-based; conditions: 5 μM, detected as soon as 2 h
T1 construct: endogenous in cells; host or cells: MCF7; HCT116
T1 sequence (Q16881 1-499 isoform Q16881-5): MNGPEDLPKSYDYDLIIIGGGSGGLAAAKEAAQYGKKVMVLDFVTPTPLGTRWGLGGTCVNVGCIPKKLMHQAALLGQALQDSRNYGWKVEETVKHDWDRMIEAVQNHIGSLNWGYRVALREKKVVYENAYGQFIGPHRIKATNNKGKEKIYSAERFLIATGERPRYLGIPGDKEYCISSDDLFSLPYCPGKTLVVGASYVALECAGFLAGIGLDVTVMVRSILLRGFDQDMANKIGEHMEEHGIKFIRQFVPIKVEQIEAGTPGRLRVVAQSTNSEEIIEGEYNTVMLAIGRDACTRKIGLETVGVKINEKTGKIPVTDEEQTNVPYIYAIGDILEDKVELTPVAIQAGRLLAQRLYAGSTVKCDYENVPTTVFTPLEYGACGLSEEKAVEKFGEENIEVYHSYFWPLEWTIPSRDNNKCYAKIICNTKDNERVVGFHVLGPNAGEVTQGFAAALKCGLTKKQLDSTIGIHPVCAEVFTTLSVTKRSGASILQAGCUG
Procedure: The extraction of total cell lysates and western blot were performed according to standard procedure. The antibodies used for immunoblotting were: p53 (sc-126, Santa Cruz Biotechnology), γH2AX (#07-164, Millipore), TrxR1 19A1 (AbFrontier). Anti-β-actin monoclonal antibody (Millipore) was used as loading control. The horseradish peroxidase-coupled secondary antibodies (Jackson ImmunoResearch) and SuperSignal™ West Dura Extended Duration Substrate detection system (Thermo Fischer Scientific), and images were visualized using ChemiDoc Imaging System (Bio-Rad).
MCF7 or HCT116 cells were treated in culture with 5 or 10 μM of 1d*HCl (Example 4) in complete medium for 2 h or 6 h. For each case, duplicate drug treated samples were produced plus duplicate control treatment samples using equal volumes of the drug vehicle dimethyl sulfoxide. Detached cells from each biological replicate were washed, suspended in PBS containing protease inhibitors and cells lysed through freeze thaw cycles in liquid N2, according to the reference protocol. Soluble fraction was separated from precipitated protein by ultracentrifugation at 100000 g for 30 minutes at 4° C. and TrxR1 dimer formation was analysed using Western blot as described above. […]

B16 melanoma = B16 melanoma mouse model; assay type: in vivo, C57BL/6 mice; conditions: 10 mg/kg i.p. every other day for 9 days, day 8 and day 9
Procedure: For the B16 melanoma mouse model, 6-weeks-old female C57BL/6 mice were injected subcutaneously with 1×10^6 B16 cells. When the tumors reached 80-120 mm^3, 10 mg/kg of 1d*HCl were administered intraperitoneally every other day for 9 days (days 1, 3, 5, 7, 9). Tumor volume was measured by caliper three times per week, and the volume was calculated based on the formula (in ml): L/10*W/10*W/10*0.44 (L-length, W=width of tumor). Mice were sacrificed when tumors reached 2 cm^3 or upon bleeding.
We tested the anti-tumor activity of 1d*HCl using allogenic model of B16 mice. We inoculated mice with B16 melanoma cells. When the tumors reached 100 mm^3, we treated them with i.p. injection of 1d*HCl, 10 mg/kg every other day for 9 days. […] The differences in tumor volume between untreated control mice and animals treated with 1d*HCl are all statistically significant. Thus, 1d*HCl has in vivo anti-tumor activity in this animal tumor model.

cancer cells [2] = assay: Oxidative stress measurement (DCFH-DA, ROS); assay type: cell-based
Procedure: Cells were treated with compounds and incubated 30 min with 10 μM DCF-DA in serum free medium. Afterward, cells were trypsinized, washed with PBS and fluorescence was analyzed by a FACSCalibur flow cytometer (BD Biosciences) using FL1-H channel.
To get insight into the mechanism of the anti-tumor activity of 1d*HCl, we tested the level of oxidative stress upon treatment. We measured the induction of reactive oxygen species (ROS), using 2′-7′-Dichlorodihydrofluorescein diacetate (DCFH-DA)-based assay. […] After 8 h of treatment, the induction of reactive oxygen species (ROS) was much higher.

HCT116 cells = assay: Growth suppression in the presence of antioxidant NAC; assay type: cell-based; conditions: HCT116, 5 mM NAC 16 h pre-treatment; 2.5, 5, 10 μM; 24 h
Procedure: To find out whether oxidative stress plays a role in cancer cell death induced by 1d*HCl, we tested the extent of growth suppression by the treatment in the presence of antioxidant N-acetyl cysteine (NAC), which neutralize ROS. We pre-treated HCT116 cells with 5 mM NAC. After 16 h of incubation with NAC, we treated HCT116 cells with 2.5, 5, and 10 μM of 1d*HCl. We measured the growth suppression 24 h after treatment. […] Thus, we conclude that the mechanism of cancer cell growth suppression is dependent on the induction of oxidative stress by the compounds of the present invention.

cancer cells [3] = assay: Cell growth assay, combination with BSO; assay type: cell-based; conditions: 5 μM 1d*HCl and 50 μM BSO
Procedure: Further, we tested whether the inhibition of GR by BSO will have additive effect with 1d*HCl. If 1d*HCl mechanism of action includes inhibition of GR, BSO will not have an additive effect. We used a range of concentrations of 1d*HCl and BSO in cell growth assays. […] Next, we tested whether the prevention of oxidative stress by NAC will affect the growth suppression by the combination of 1d*HCl and BSO. In the presence of NAC we observed the additive effect of 1d*HCl with 50 μM BSO only at twice higher dose of 1d*HCl-10 μM.

Cl.N#Cc1c(-c2cccnc2)[n+]([O-])c2cc(F)c(N3CCOCC3)cc2[n+]1[O-] [Compound 1d*HCl, 6-Fluoro-7-(morpholin-4-yl)-3-(pyridin-3-yl)quinoxaline-2-carbonitrile-1,4-dioxide hydrochloride]
formation of TrxR1 covalent dimers (130 kDa band) [1]: induces the formation of TrxR1 covalent dimers
tumor volume compared to vehicle-treated mice (B16 melanoma): lower volume of tumors
induction of reactive oxygen species (DCF fluorescence) (cancer cells [2]; 2 h after treatment): significant increase in DCF fluorescence
induction of reactive oxygen species (ROS) (cancer cells [2]; after 8 h of treatment): much higher
growth suppression after prevention of ROS accumulation by NAC (HCT116 cells): almost completely abolished the growth suppression
effect of combination with BSO on cell growth (cancer cells [3]): have an additive effect and completely eradicated cancer cells
